Data on two substances can be found in patent publication US7317000B2, “Glucose-dependent insulins” (Novo Nordisk A/S, priority 2001, dated 2008).

This test concerns the target solubilized human insulin receptor (Homo sapiens, UniProt P06213). In words: Insulin receptor binding by competition with 125I-TyrA14 human insulin (scintillation counting). The conditions noted are these: antibody-captured solubilized receptor on Scintiplates.

What is called Kd is the concentration at which binding is half-saturated.

solubilized human insulin receptor, sequence (P06213 28-758 limits assumed): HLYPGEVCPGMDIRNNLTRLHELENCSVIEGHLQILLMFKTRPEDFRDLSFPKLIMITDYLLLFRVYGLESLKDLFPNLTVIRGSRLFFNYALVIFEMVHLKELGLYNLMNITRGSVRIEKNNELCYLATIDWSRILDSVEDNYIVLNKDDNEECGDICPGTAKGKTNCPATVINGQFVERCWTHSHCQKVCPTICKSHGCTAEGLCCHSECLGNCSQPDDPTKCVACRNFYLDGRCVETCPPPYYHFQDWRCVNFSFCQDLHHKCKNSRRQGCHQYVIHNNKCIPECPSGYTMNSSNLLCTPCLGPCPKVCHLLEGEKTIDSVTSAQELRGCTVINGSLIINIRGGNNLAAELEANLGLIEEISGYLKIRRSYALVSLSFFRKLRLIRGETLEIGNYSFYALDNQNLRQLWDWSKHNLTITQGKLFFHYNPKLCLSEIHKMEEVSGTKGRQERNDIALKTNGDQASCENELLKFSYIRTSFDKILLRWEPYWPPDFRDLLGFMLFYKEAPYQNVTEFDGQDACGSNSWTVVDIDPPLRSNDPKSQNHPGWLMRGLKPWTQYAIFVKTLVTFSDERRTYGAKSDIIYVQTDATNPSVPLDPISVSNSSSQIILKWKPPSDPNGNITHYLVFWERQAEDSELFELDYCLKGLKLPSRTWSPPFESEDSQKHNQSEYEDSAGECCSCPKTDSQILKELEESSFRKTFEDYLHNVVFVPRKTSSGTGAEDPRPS
solubilized human insulin receptor, sequence (P06213 763-1382 partner limits assumed): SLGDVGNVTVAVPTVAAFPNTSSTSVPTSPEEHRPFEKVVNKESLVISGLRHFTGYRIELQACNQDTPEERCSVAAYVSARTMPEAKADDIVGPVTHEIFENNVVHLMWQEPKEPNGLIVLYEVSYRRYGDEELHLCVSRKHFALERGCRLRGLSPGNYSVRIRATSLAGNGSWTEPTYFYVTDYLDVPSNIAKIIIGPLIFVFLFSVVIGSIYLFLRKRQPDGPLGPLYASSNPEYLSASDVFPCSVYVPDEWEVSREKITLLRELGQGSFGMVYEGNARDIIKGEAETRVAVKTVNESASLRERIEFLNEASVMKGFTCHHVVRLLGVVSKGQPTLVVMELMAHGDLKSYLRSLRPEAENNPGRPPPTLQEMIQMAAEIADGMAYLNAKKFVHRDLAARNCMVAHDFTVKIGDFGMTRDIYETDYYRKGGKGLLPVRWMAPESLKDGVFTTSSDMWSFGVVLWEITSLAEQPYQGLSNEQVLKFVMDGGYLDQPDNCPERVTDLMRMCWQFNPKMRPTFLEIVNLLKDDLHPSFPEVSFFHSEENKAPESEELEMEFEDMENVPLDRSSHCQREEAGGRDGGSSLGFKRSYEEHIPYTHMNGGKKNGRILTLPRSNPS

“Lys^B29(N^ε-(4-carboxyphenylalanine-N-methyl-glucamide), N^α-(4-borono-phenylsulfonyl)) des(B30), human insulin [Compound 23]”: the dissociation constant Kd worked out at 0.015 nM. This counts as picomolar.
Under “Lys^B29-(N^ε(γ-L-glutamyl-α-D-glucamide, N^α-(3-borono-5-nitro-benzoyl)) des(B30) human insulin [Compound 10]” stands 0.016 nM.
